Source: article PMC4965013, “Open Source Drug Discovery with the Malaria Box Compound Collection for Neglected Diseases and Beyond” (PLoS Pathogens, 2016)

Key:
[1] = tested on: P. falciparum 3D7 trophozoites; assay: Metabolomic fingerprint profiling LC-MS; format: cell-based, Plasmodium falciparum; design: UDP-D-glucose / ADP-D-glucose: unit not given here; conditions: for Acetyllysine / N-acetyl-L-ornithine / N-carbamoyl-L-aspartate / NADPH / dAMP / dCMP / dTDP / dTMP / dTTP / dihydroorotate / orotate / DLH / DLS/SDL/SID / PD / PEE / PVNF / 3-phosphoglycerate / ADP-D-glucose / ATP / CDP / D-sedoheptulose-1/7-phosphate / FAD / GMP / NAD+ / NADP+ / Octoluse Bisphosphate / Pyroglutamic acid / UDP-D-glucose / UDP-D-glucuronate / UDP-N-acetyl-glucosamine / UDP / UMP / UTP / a-ketoglutarate / citrate/isocitrate / cytidine / dATP / dGMP/AMP / fumarate / glucose-1/6-phosphate / glycerate / guanine / guanosine / hypoxanthine / indole / inosine / nicotinate / ornithine / phosphoenolpyruvate / pyruvate / ribose-phosphate / sarcosine/alanine / sn-glycerol-3-phosphate / succinate/methylmalonic acid / uridine / xanthosine: S2 Table Metabolomics; for Acetyllysine: metabolite Acetyllysine; for N-acetyl-L-ornithine: metabolite N-acetyl-L-ornithine; for N-carbamoyl-L-aspartate: metabolite N-carbamoyl-L-aspartate; for NADPH: metabolite NADPH; for dAMP: metabolite dAMP; for dCMP: metabolite dCMP; for dTDP: metabolite dTDP; for dTMP: metabolite dTMP; for dTTP: metabolite dTTP; for dihydroorotate: metabolite dihydroorotate; for orotate: metabolite orotate; for DLH: peptide DLH; for DLS/SDL/SID: peptide DLS/SDL/SID; for PD: peptide PD; for PEE: peptide PEE; for PVNF: peptide PVNF; for 3-phosphoglycerate: metabolite 3-phosphoglycerate; for ADP-D-glucose: metabolite ADP-D-glucose; for ATP: metabolite ATP; for CDP: metabolite CDP; for CDP / D-sedoheptulose-1/7-phosphate / GMP / Octoluse Bisphosphate / UDP / UMP / UTP / citrate/isocitrate / dGMP/AMP / fumarate / glucose-1/6-phosphate / glycerate / guanine / guanosine / inosine / pyruvate / sarcosine/alanine / succinate/methylmalonic acid / uridine / xanthosine: change in metabolite level after compound treatment; for D-sedoheptulose-1/7-phosphate: metabolite D-sedoheptulose-1/7-phosphate; for FAD: metabolite FAD; for GMP: metabolite GMP; for NAD+: metabolite NAD+; for NADP+: metabolite NADP+; for Octoluse Bisphosphate: metabolite Octoluse Bisphosphate; for Pyroglutamic acid: metabolite Pyroglutamic acid; for UDP-D-glucose: metabolite UDP-D-glucose; for UDP-D-glucuronate: metabolite UDP-D-glucuronate; for UDP-N-acetyl-glucosamine: metabolite UDP-N-acetyl-glucosamine; for UDP: metabolite UDP; for UMP: metabolite UMP; for UTP: metabolite UTP; for a-ketoglutarate: metabolite a-ketoglutarate; for citrate/isocitrate: metabolite citrate/isocitrate; for cytidine: metabolite cytidine; for dATP: metabolite dATP; for dGMP/AMP: metabolite dGMP/AMP; for fumarate: metabolite fumarate; for glucose-1/6-phosphate: metabolite glucose-1/6-phosphate; for glycerate: metabolite glycerate; for guanine: metabolite guanine; for guanosine: metabolite guanosine; for hypoxanthine: metabolite hypoxanthine; for indole: metabolite indole; for inosine: metabolite inosine; for 2_3-Diphosphoglyceric acid / 4-phosphopantothenate / 6-phospho-D-gluconate / FMN / IMP / Pyrophosphate / Sedoheptoluse bisphosphate / cyclic-AMP / glutathione disulfide / lactate / myo-inositol: metabolite level change after treatment; for nicotinate: metabolite nicotinate; for ornithine: metabolite ornithine; for phosphoenolpyruvate: metabolite phosphoenolpyruvate; for pyruvate: metabolite pyruvate; for ribose-phosphate: metabolite ribose-phosphate; for sarcosine/alanine: metabolite sarcosine/alanine; for sn-glycerol-3-phosphate: metabolite sn-glycerol-3-phosphate; for succinate/methylmalonic acid: metabolite succinate/methylmalonic acid; for uridine: metabolite uridine; for xanthosine: metabolite xanthosine
[2] = tested on: bovine Babesia and equine Babesia and Theileria parasites; assay: Babesia and Theileria fluorescence-based assay, all four species; format: cell-based, B. bovis, B. bigemina, T. equi, B. caballi
P. falciparum = assay: EC50 listed in S2 Table Metabolomics (used to set the concentration tested); format: cell-based; conditions: Plasmodium falciparum, read-out: EC50_nM

COc1ccccc1N=C1C(=O)c2ccccc2C(O)=C1N1CCCCC1 [MMV085203]
Acetyllysine [1]: 0.5338 | N-acetyl-L-ornithine [1]: 0.417 | N-carbamoyl-L-aspartate [1]: -0.03953 | NADPH [1]: 1.905 | dAMP [1]: 0.2134 | dCMP [1]: -0.3018 | dTDP [1]: 0.1555 | dTMP [1]: 0.3091 | dTTP [1]: 0.09879 | dihydroorotate [1]: -0.4435 | orotate [1]: -0.006229 | DLH [1]: 0.05618 | DLS/SDL/SID [1]: 0.215 | PD [1]: -0.1394 | PEE [1]: 0.002208 | PVNF [1]: 0.05104 | 3-phosphoglycerate [1]: 0.03547 | ADP-D-glucose [1]: -0.1308 | ATP [1]: 0.1374 | CDP [1]: 0.2087 | D-sedoheptulose-1/7-phosphate [1]: 0.1847 | FAD [1]: -0.04298 | GMP [1]: 0.06518 | NAD+ [1]: -0.0924 | NADP+ [1]: 0.08883 | Octoluse Bisphosphate [1]: 0.05889 | Pyroglutamic acid [1]: 0.3327 | UDP-D-glucose [1]: 0.02335 | UDP-D-glucuronate [1]: 0.1307 | UDP-N-acetyl-glucosamine [1]: -0.006531 | UDP [1]: 0.1215 | UMP [1]: -0.1092 | UTP [1]: 0.1112 | a-ketoglutarate [1]: 0.6853 | citrate/isocitrate [1]: 0.6482 | cytidine [1]: -0.04401 | dATP [1]: 0.1251 | dGMP/AMP [1]: 0.1681 | fumarate [1]: 0.1969 | glucose-1/6-phosphate [1]: -0.1808 | glycerate [1]: 0.6274 | guanine [1]: 0.2252 | guanosine [1]: 0.5678 | hypoxanthine [1]: 0.8131 | indole [1]: 0.6437 | inosine [1]: 0.2953 | 2_3-Diphosphoglyceric acid [1]: 0.04377 | 4-phosphopantothenate [1]: 0.03169 | 6-phospho-D-gluconate [1]: 0.09424 | FMN [1]: -0.0513 | IMP [1]: 0.06497 | Pyrophosphate [1]: -0.1041 | Sedoheptoluse bisphosphate [1]: 0.1294 | cyclic-AMP [1]: 0.1643 | glutathione disulfide [1]: -0.1576 | lactate [1]: 0.4496 | myo-inositol [1]: 0.5579 | nicotinate [1]: 0.3875 | ornithine [1]: 0.05264 | phosphoenolpyruvate [1]: 0.005153 | pyruvate [1]: 1.4601 | ribose-phosphate [1]: 1.0837 | sarcosine/alanine [1]: 0.0342 | sn-glycerol-3-phosphate [1]: -0.8649 | succinate/methylmalonic acid [1]: 0.5863 | uridine [1]: 0.4561 | xanthosine [1]: 0.5245 | anti-Babesia and anti-Theileria hits, IC50 in words [2]: nanomolar IC50s

C[n+]1c2ccccc2nc2ccc(NCCO)cc21 [MMV396693]
Acetyllysine [1]: -0.1505 | N-acetyl-L-ornithine [1]: -0.01449 | N-carbamoyl-L-aspartate [1]: 0.2036 | NADPH [1]: 1.101 | dAMP [1]: 0.3768 | dCMP [1]: -0.245 | dTDP [1]: -0.2826 | dTMP [1]: -0.3704 | dTTP [1]: 0.008069 | dihydroorotate [1]: 0.3914 | orotate [1]: -0.3502 | DLH [1]: 0.01259 | DLS/SDL/SID [1]: 0.07661 | PD [1]: 0.009709 | PEE [1]: -0.05476 | PVNF [1]: 0.1478 | 3-phosphoglycerate [1]: 0.5809 | ADP-D-glucose [1]: 0.23 | ATP [1]: 0.04335 | CDP [1]: -0.06362 | D-sedoheptulose-1/7-phosphate [1]: -0.05616 | FAD [1]: 0.2669 | GMP [1]: 0.08605 | NAD+ [1]: 0.2129 | NADP+ [1]: 0.2138 | Octoluse Bisphosphate [1]: 0.3676 | Pyroglutamic acid [1]: 0.1161 | UDP-D-glucose [1]: 0.1757 | UDP-D-glucuronate [1]: 0.2718 | UDP-N-acetyl-glucosamine [1]: 0.1832 | UDP [1]: -0.3369 | UMP [1]: -0.448 | UTP [1]: 0.03764 | a-ketoglutarate [1]: -0.1814 | citrate/isocitrate [1]: 1.401 | cytidine [1]: 0.9119 | dATP [1]: 0.0739 | dGMP/AMP [1]: 0.007618 | fumarate [1]: 0.1883 | glucose-1/6-phosphate [1]: -0.01569 | glycerate [1]: 0.2787 | guanine [1]: 0.244 | guanosine [1]: 0.1378 | hypoxanthine [1]: 0.1496 | indole [1]: 0.3367 | inosine [1]: 0.5603 | 2_3-Diphosphoglyceric acid [1]: 0.305 | 4-phosphopantothenate [1]: 0.02035 | 6-phospho-D-gluconate [1]: 0.201 | FMN [1]: 0.1776 | IMP [1]: 0.1162 | Pyrophosphate [1]: 0.4038 | Sedoheptoluse bisphosphate [1]: 0.06738 | cyclic-AMP [1]: 0.09405 | glutathione disulfide [1]: 0.1827 | lactate [1]: 0.3349 | myo-inositol [1]: -0.009161 | nicotinate [1]: 0.1527 | ornithine [1]: 0.2843 | phosphoenolpyruvate [1]: 0.01034 | pyruvate [1]: -0.1004 | ribose-phosphate [1]: 0.7027 | sarcosine/alanine [1]: 0.6024 | sn-glycerol-3-phosphate [1]: 0.3061 | succinate/methylmalonic acid [1]: 0.6812 | uridine [1]: 0.1028 | xanthosine [1]: 0.2966 | EC50 (P. falciparum): 296 nM | anti-Babesia and anti-Theileria hits, IC50 in words [2]: nanomolar IC50s | mean selectivity indices (SI) [2]: greater than 230 | IC50 ([2]; Babesia, read-out: IC50s for both bovine Babesia and equine Babesia and Theileria parasites): 43 to 750 nM
